# In patent US20260022142A1, “MACROCYCLIC IMMUNOMODULATORS” (Bristol-Myers Squibb Company, priority 2022, published 2026):
# Numbered stars: 1 amine (or outer) side, 2 acyl side, 3 side chain; on linkers, the order of the positions; unused ones are H or OH. Bridge positions count the residues as written; N and C are the ends. Square brackets hold non-standard residues; d marks the D form. Peptide text beside a SMILES is read from it. * marks the point of attachment. ξ: configuration not given here. Phe(3-CF3) = N[C@@H](Cc1cccc(C(F)(F)F)c1)C(=O)O; Phe(4-COOH) = N[C@@H](Cc1ccc(C(=O)O)cc1)C(=O)O; Bip = N[C@@H](Cc1ccc(-c2ccccc2)cc1)C(=O)O; NH(CH2)14COOH = O=C(O)CCCCCCCCCCCCCCN*; Phe(3-Me) = Cc1cccc(C[C@H](N)C(=O)O)c1; NH(CH2)12COOH = O=C(O)CCCCCCCCCCCCN*; Val(3-OH) = CC(C)(O)[C@H](N)C(=O)O; Pip(4-aza) = O=C(O)[C@@H]1CNCCN1; 4Pal = N[C@@H](Cc1ccncc1)C(=O)O; X1 = O=C(CN1CCN([*:1])CC1)[*:2]; Cha = N[C@@H](CC1CCCCC1)C(=O)O; Cit = NC(=O)NCCC[C@H](N)C(=O)O; Thr(3ξ) = CC(O)[C@H](N)C(=O)O; Cba = N[C@@H](CC1CCC1)C(=O)O; NMeNle = CCCC[C@H](NC)C(=O)O; Carboxymethyl = O=C(O)C*; Orn = NCCC[C@H](N)C(=O)O; Aun = NCCCCCCCCCCC(=O)O; Dab = NCC[C@H](N)C(=O)O; Dap = NC[C@H](N)C(=O)O; AEEA = NCCOCCOCC(=O)O
# Target: T1, PD-1/PD-L1 interaction (PE-labeled human PD-L1-Ig binding to Jurkat cell line over-expressing human PD-1) (Homo sapiens, UniProt Q15116)
# T1 construct: expressed in transfected cells; host or cells: Jurkat
# T1 sequence (Q15116 25-288): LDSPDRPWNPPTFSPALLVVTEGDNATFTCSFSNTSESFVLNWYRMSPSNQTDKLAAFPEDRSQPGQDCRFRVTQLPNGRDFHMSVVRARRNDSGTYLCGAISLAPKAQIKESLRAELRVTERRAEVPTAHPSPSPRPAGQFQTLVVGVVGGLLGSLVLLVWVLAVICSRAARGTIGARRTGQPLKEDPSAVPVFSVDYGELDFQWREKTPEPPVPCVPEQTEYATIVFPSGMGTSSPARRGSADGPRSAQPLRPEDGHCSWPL
# Assay: Jurkat-PD-1 Cell Binding High-Content Screening Assay (CBA)
# Type: cell-based
# Conditions: Jurkat cell line over-expressing human PD-1; PE-labeled PD-L1-Ig 20 nM final; read-out: Jurkat hPD1-PDL1 IC50
# Summary of the method: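 Read-out is high-content imaging of cell-bound phycoerythrin-tagged PD-L1-Ig on fixed, Hoechst-counterstained Jurkat cells that over-express human PD-1. Compound exposure lasts 2 h at 37° C before the labeled ligand (20 nM final) is added for a further hour.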
row,IC50 [nM],SMILES
1,78.1,Cc1cccc(C[C@@H]2NC(=O)[C@H](CC(=O)O)NC(=O)[C@H](Cc3ccc(OCC(=O)O)cc3)NC(=O)[C@H](CCCNC(=N)N)NC(=O)CSC[C@@H](C(=O)N[C@@H](CCN)C(=O)NCCCCCCCCCCCCCCC(=O)O)NC(=O)[C@H](CO)NC(=O)[C@H](C(C)(C)O)NC(=O)[C@H](CC3CCCCC3)NC(=O)[C@H](CCN)NC(=O)[C@@H](CC(C)C)NC(=O)[C@H](CCCN)NC(=O)[C@H](Cc3ccc(OCC(=O)O)cc3)NC(=O)[C@H](Cc3ccc(-c4ccccc4)cc3)NC(=O)[C@H](Cc3ccc(OCC(=O)O)cc3)NC2=O)c1 [Compound 2228] ({CH2CO}-RY(Carboxymethyl)D[Phe(3-Me)]Y(Carboxymethyl)[Bip]Y(Carboxymethyl)[Orn][dL][Dab][Cha][Val(3-OH)]SC[Dab]-{NH(CH2)14COOH}; thioether N-14)
2,282,CC(=O)NCCCC[C@@H]1NC(=O)[C@H](C(C)(C)O)NC(=O)[C@H](CC2CCCCC2)NC(=O)[C@H](CCN)NC(=O)[C@@H](CC(C)C)NC(=O)[C@H](CCCN)NC(=O)[C@H](Cc2ccc(OCC(=O)O)cc2)NC(=O)[C@H](Cc2ccc(-c3ccccc3)cc2)NC(=O)[C@H](Cc2ccc(OCC(=O)O)cc2)NC(=O)[C@H](Cc2cccc(C(F)(F)F)c2)NC(=O)[C@H](CC(=O)O)NC(=O)[C@H](Cc2ccc(OCC(=O)O)cc2)NC(=O)[C@H](Cc2ccc(OCC(=O)O)cc2)NC(=O)CSC[C@@H](C(=O)N[C@@H](CCN)C(=O)NCCOCCOCC(=O)NCCCCCCCCCCCCCCC(=O)O)NC1=O [Compound 3850] ({CH2CO}-Y(Carboxymethyl)Y(Carboxymethyl)D[Phe(3-CF3)]Y(Carboxymethyl)[Bip]Y(Carboxymethyl)[Orn][dL][Dab][Cha][Val(3-OH)]K(Ac)C[Dab][AEEA]-{NH(CH2)14COOH}; thioether N-14)
3,43.9,CC(=O)NCCCC[C@H](NC(=O)[C@@H]1CSCC(=O)N[C@@H](CCN)C(=O)N[C@@H](Cc2ccc(OCC(=O)O)cc2)C(=O)N[C@@H](CC(=O)O)C(=O)N[C@@H](Cc2cccc(C)c2)C(=O)N[C@@H](C(C)C)C(=O)N[C@@H](Cc2ccc(-c3ccccc3)cc2)C(=O)N[C@@H](CCCNC(N)=O)C(=O)N[C@@H](CCCN)C(=O)N[C@H](CC(C)C)C(=O)N[C@@H](CN)C(=O)N[C@@H](CC2CCCCC2)C(=O)N[C@@H](C(C)C)C(=O)N[C@@H](C(C)O)C(=O)N1)C(=O)NCCCCCCCCCCC(=O)O (stereo partly drawn) [Compound 3563] ({CH2CO}-[Dab]Y(Carboxymethyl)D[Phe(3-Me)]V[Bip][Cit][Orn][dL][Dap][Cha]V[Thr(3ξ)]CK(Ac)[Aun]-OH; thioether N-14)
4,26.7,CC(C)C[C@H]1NC(=O)[C@H](CCCN)NC(=O)[C@H](Cc2ccc(O)cc2)NC(=O)[C@H](Cc2ccc(-c3ccccc3)cc2)NC(=O)[C@H](C(C)C)NC(=O)[C@H](Cc2c[nH]c3ccccc23)NC(=O)[C@H](CC(=O)O)NC(=O)[C@H](Cc2ccc(O)cc2)NC(=O)[C@H](Cc2ccncc2)NC(=O)CSC[C@@H](C(=O)N[C@@H](CCN)C(=O)NCCCCCCCCCCC(=O)O)NC(=O)[C@H](CCCN)NC(=O)[C@H](C(C)C)NC(=O)[C@H](CC2CCCCC2)NC(=O)[C@H](CCN)NC1=O [Compound 2704] ({CH2CO}-[4Pal]YDWV[Bip]Y[Orn][dL][Dab][Cha]V[Orn]C[Dab][Aun]-OH; thioether N-14)
5,13.8,CCCC[C@H]1C(=O)N[C@@H](Cc2ccc(OCC(=O)O)cc2)C(=O)N[C@@H](CC(=O)O)C(=O)N[C@@H](Cc2cccc(C)c2)C(=O)N[C@@H](Cc2ccc(OCC(=O)O)cc2)C(=O)N[C@@H](Cc2ccc(-c3ccccc3)cc2)C(=O)N[C@@H](Cc2ccc(OCC(=O)O)cc2)C(=O)N[C@@H](CCCN)C(=O)N[C@H](CC(C)C)C(=O)N[C@@H](CCN)C(=O)N[C@@H](CC2CCCCC2)C(=O)N[C@@H](C(C)C)C(=O)N[C@@H](CO)C(=O)N[C@H](C(=O)N[C@@H](CCN)C(=O)NCCCCCCCCCCC(=O)O)CSCC(=O)N1C [Compound 3598] ({CH2CO}-[NMeNle]Y(Carboxymethyl)D[Phe(3-Me)]Y(Carboxymethyl)[Bip]Y(Carboxymethyl)[Orn][dL][Dab][Cha]VSC[Dab][Aun]-OH; thioether N-14)
6,54.9,Cc1cccc(C[C@@H]2NC(=O)[C@H](CC(=O)O)NC(=O)[C@H](Cc3ccc(OCC(=O)O)cc3)NC(=O)[C@H](Cc3ccc(OCC(=O)O)cc3)NC(=O)CSC[C@@H](C(=O)N[C@@H](CCCCN)C(=O)NCCCCCCCCCCC(=O)O)NC(=O)[C@H](CO)NC(=O)[C@H](C(C)C)NC(=O)[C@H](CC(C)C)NC(=O)[C@H](CCN)NC(=O)[C@@H](CC(C)C)NC(=O)[C@H](CCCN)NC(=O)[C@H](C(C)C)NC(=O)[C@H](Cc3ccc(-c4ccccc4)cc3)NC(=O)[C@@H](CC(C)C)NC2=O)c1 [Compound 1142] ({CH2CO}-Y(Carboxymethyl)Y(Carboxymethyl)D[Phe(3-Me)][dL][Bip]V[Orn][dL][Dab]LVSCK[Aun]-OH; thioether N-14)
7,135,CC(C)C[C@@H]1NC(=O)[C@H](Cc2c[nH]c3ccccc23)NC(=O)[C@H](CC(=O)O)NC(=O)[C@H](Cc2ccncc2)NC(=O)[C@H](Cc2ccc(OCC(=O)O)cc2)NC(=O)CSC[C@@H](C(=O)N2CCNC[C@H]2C(=O)NCCCCCCCCCCC(=O)O)NC(=O)[C@H](C(C)O)NC(=O)[C@H](C(C)C)NC(=O)[C@H](CC2CCCCC2)NC(=O)[C@H](CCN)NC(=O)[C@@H](CC(C)C)NC(=O)[C@H](CCCN)NC(=O)[C@H](C(C)C)NC(=O)[C@H](Cc2ccc(-c3ccccc3)cc2)NC1=O (stereo partly drawn) [Compound 1223] ({CH2CO}-Y(Carboxymethyl)[4Pal]DWL[Bip]V[Orn][dL][Dab][Cha]V[Thr(3ξ)]C[Pip(4-aza)][Aun]-OH; thioether N-14)
8,43.7,CC[C@H](C)[C@@H]1NC(=O)[C@H](Cc2ccc(-c3ccccc3)cc2)NC(=O)[C@H](C(C)C)NC(=O)[C@H](Cc2cccc(C)c2)NC(=O)[C@H](CC(=O)O)NC(=O)[C@H](Cc2ccc(C(=O)O)cc2)NC(=O)[C@H](Cc2ccncc2)NC(=O)CSC[C@@H](C(=O)NCCOCCOCC(=O)NCCCCCCCCCCC(=O)O)NC(=O)[C@H]([C@@H](C)O)NC(=O)[C@H](C(C)C)NC(=O)[C@H](CC2CCCCC2)NC(=O)[C@H](CCN)NC(=O)[C@@H](CC(C)C)NC(=O)[C@H](CCCN)NC1=O [Compound 1182]
9,10.3,CC(C)C[C@H]1NC(=O)[C@H](CCCN)NC(=O)[C@H](Cc2ccc(O)cc2)NC(=O)[C@H](Cc2ccc(-c3ccccc3)cc2)NC(=O)[C@H](C(C)C)NC(=O)[C@H](Cc2cccc(C(F)(F)F)c2)NC(=O)[C@H](CC(=O)O)NC(=O)[C@H](Cc2ccc(OCC(=O)O)cc2)NC(=O)[C@H](CN)NC(=O)CSC[C@@H](C(=O)N[C@@H](CCN)C(=O)NCCOCCOCC(=O)NCCCCCCCCCCC(=O)O)NC(=O)[C@H](CCCN)NC(=O)[C@H](C(C)C)NC(=O)[C@H](CC2CCCCC2)NC(=O)[C@H](CCN)NC1=O [Compound 1288] ({CH2CO}-[Dap]Y(Carboxymethyl)D[Phe(3-CF3)]V[Bip]Y[Orn][dL][Dab][Cha]V[Orn]C[Dab][AEEA][Aun]-OH; thioether N-14)
10,5,Cc1cccc(C[C@@H]2NC(=O)[C@H](CC(=O)O)NC(=O)[C@H](Cc3ccc(OCC(=O)O)cc3)NC(=O)[C@H](CC3CCC3)NC(=O)CSC[C@@H](C(=O)N[C@@H](CCN)C(=O)NCCCCCCCCCCC(=O)O)NC(=O)[C@H](CO)NC(=O)[C@H](C(C)(C)O)NC(=O)[C@H](CC3CCCCC3)NC(=O)[C@H](CCN)NC(=O)[C@@H](CC(C)C)NC(=O)[C@H](CCCN)NC(=O)[C@H](Cc3ccc(OCC(=O)O)cc3)NC(=O)[C@H](Cc3ccc(-c4ccccc4)cc3)NC(=O)[C@H](Cc3ccc(OCC(=O)O)cc3)NC2=O)c1 [Compound 2233] ({CH2CO}-[Cba]Y(Carboxymethyl)D[Phe(3-Me)]Y(Carboxymethyl)[Bip]Y(Carboxymethyl)[Orn][dL][Dab][Cha][Val(3-OH)]SC[Dab][Aun]-OH; thioether N-14)
11,52.4,Cc1cccc(C[C@@H]2NC(=O)[C@H](CC(=O)O)NC(=O)[C@H](Cc3ccc(OCC(=O)O)cc3)NC(=O)[C@H](CCN)NC(=O)CSC[C@@H](C(=O)N[C@@H](CCN)C(=O)NCCOCCOCC(=O)NCCOCCOCC(=O)NCCCCCCCCCCCCC(=O)O)NC(=O)[C@H](CC(=O)O)NC(=O)[C@H](C(C)(C)O)NC(=O)[C@H](CC3CCCCC3)NC(=O)[C@H](Cc3c[nH]cn3)NC(=O)[C@@H](CC(C)C)NC(=O)[C@H](CCCN)NC(=O)[C@H](Cc3ccc(C(=O)O)cc3)NC(=O)[C@H](Cc3ccc(-c4ccccc4)cc3)NC(=O)[C@H](Cc3ccc(C(=O)O)cc3)NC2=O)c1 [Compound 2889] ({CH2CO}-[Dab]Y(Carboxymethyl)D[Phe(3-Me)][Phe(4-COOH)][Bip][Phe(4-COOH)][Orn][dL]H[Cha][Val(3-OH)]DC[Dab][AEEA][AEEA]-{NH(CH2)12COOH}; thioether N-14)
12,28,Cc1cccc(C[C@@H]2NC(=O)[C@H](CC(=O)O)NC(=O)[C@H](Cc3ccncc3)NC(=O)[C@H](Cc3ccc(OCC(=O)O)cc3)NC(=O)CSC[C@@H](C(=O)N[C@@H](CCCCN)C(=O)NCCCCCCCCCCC(=O)O)NC(=O)[C@H]([C@@H](C)O)NC(=O)[C@H](C(C)C)NC(=O)[C@H](CC3CCCCC3)NC(=O)[C@H](CCN)NC(=O)[C@@H](CC(C)C)NC(=O)[C@H](CCCN)NC(=O)[C@H](C(C)C)NC(=O)[C@H](Cc3ccc(-c4ccccc4)cc3)NC(=O)[C@H](C(C)C)NC2=O)c1 [Compound 1166] ({CH2CO}-Y(Carboxymethyl)[4Pal]D[Phe(3-Me)]V[Bip]V[Orn][dL][Dab][Cha]VTCK[Aun]-OH; thioether N-14)
13,110,CC(C)C[C@@H]1NC(=O)[C@H](Cc2c[nH]c3ccccc23)NC(=O)[C@H](CC(=O)O)NC(=O)[C@H](Cc2ccncc2)NC(=O)[C@H](Cc2ccc(OCC(=O)O)cc2)NC(=O)CSC[C@@H](C(=O)N2CCN(CC(=O)NCCCCCCCCCCC(=O)O)CC2)NC(=O)[C@H](CCCNC(N)=O)NC(=O)[C@H](C(C)C)NC(=O)[C@H](CC2CCCCC2)NC(=O)[C@H](CCN)NC(=O)[C@@H](CC(C)C)NC(=O)[C@H](CCCN)NC(=O)[C@H](C(C)C)NC(=O)[C@H](Cc2ccc(-c3ccccc3)cc2)NC1=O [Compound 1314] ({CH2CO}-Y(Carboxymethyl)[4Pal]DWL[Bip]V[Orn][dL][Dab][Cha]V[Cit]C[X1][Aun]-OH; thioether N-14)
